The test system of test [1] is dendritic arbor complexity of neuronal cultures. On the set-up: method as in PMID 29898390. The conditions noted are these: cultured neurons; cited from earlier work.
Test [2] addresses T1, TrkB (Rattus norvegicus, UniProt Q63604).
T1 construct: expressed in transfected cells; host or cells: HEK293T
Kind of test: Competition binding with biotinylated R,R-HNK. As to the method: Binding assays were performed as previously described with minor modifications. […] Samples from mouse embryo (E18) brains were also lysed, vortexed, sonicated and centrifuged for binding assays. Plates were then washed with PBS. […] For the competition binding assays with biotinylated R,R-HNK, the amino-biotinylation of R,R-HNK was performed using a commercial kit (Thermo Scientific, EZ-Link NHS-PEG4 Biotinylation Kit, 21455) and the reaction monitored by MS. A mixture of biotinylated R,R-HNK (10 µM) and unlabeled compounds (1 pM to 10 µM) in PBS was added to the 96-well plates containing the immunoprecipitated TrkB and incubated for 1 h at room temperature. […] Luminescence was determined via streptavidin conjugated with horseradish peroxidase (HRP; Thermo Fisher Scientific, 21126; 1:5,000, 1 h at room temperature) in reaction with the Pierce ECL substrate (Thermo Fisher Scientific, 32106). Luminescence from blank wells that contained all reagents but the sample lysates was used to determine nonspecific binding. To obtain the binding curves, results from binding assays were fitted to the equation of specific binding with Hill slope from GraphPad Prism 9.2. To calculate koff values, results were fitted to the equation of dissociation of one phase exponential decay from GraphPad Prism 9.2.

For another test, the target named is T2, TrkB (WT) dimerization (Rattus norvegicus, UniProt Q63604).
T2 construct: expressed in transfected cells; host or cells: N2a
T2 sequence (Q63604 32-821): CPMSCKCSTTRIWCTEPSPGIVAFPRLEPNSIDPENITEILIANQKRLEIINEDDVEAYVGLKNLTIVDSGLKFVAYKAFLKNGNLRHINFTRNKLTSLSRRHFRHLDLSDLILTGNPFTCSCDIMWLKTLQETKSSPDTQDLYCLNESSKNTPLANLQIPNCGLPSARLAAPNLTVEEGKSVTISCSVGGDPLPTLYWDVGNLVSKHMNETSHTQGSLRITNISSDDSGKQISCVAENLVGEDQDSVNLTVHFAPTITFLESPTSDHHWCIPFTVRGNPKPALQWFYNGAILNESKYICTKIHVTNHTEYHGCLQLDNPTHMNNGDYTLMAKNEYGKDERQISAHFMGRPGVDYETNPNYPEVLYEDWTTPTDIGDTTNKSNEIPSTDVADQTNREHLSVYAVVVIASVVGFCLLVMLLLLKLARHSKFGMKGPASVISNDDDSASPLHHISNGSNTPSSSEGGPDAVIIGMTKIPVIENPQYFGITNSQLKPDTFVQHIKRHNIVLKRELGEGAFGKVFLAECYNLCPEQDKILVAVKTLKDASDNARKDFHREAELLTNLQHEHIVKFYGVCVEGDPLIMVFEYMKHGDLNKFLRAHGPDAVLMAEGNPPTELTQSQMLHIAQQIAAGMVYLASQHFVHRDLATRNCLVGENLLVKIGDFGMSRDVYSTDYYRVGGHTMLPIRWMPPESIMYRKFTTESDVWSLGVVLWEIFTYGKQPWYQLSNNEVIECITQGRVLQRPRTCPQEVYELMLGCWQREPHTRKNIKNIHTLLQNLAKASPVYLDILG
T2 sequence (Q63604 32-821): as above
Kind of test: Split-luciferase PCA of TrkB dimerization in N2a cells. Type of test: cell-based. The conditions noted are these: ketanserin 100 nM, M100907 100 nM or TrkB.FC 200 ng ml^−1, 10 min before. As to the method: Ketanserin, M100907 and TRKB.FC were added to the media 10 min before treatment. The PCA method was performed as previously described[11],[75],[76]. Split humanized Gaussia princeps luciferase (hGLuc) was cloned on the C-terminus of the reporter proteins TrkB (WT and Y433F) and lipid raft Fyn. If the reporter proteins that carry complementary halves of the luciferase interact, the enzyme can refold in its functional conformation and, upon addition of its substrate, produce luminescence proportionally to the amount of reporter proteins interacting at a given time. N2a cells were seeded in 96-well plates with opaque walls and transparent bottom (PerkinElmer, ViewPlate 96). Cells were transfected with Lipofectamine 2000 according to the manufacturer’s instructions 24 h post-plating with the PCA pair plasmids: phGLuc(1C)-TrkB(WT) or the mutant phGLuc(1C)-TrkB(Y433F) and phGLuc(2 C)-TrkB(WT) for the dimerization experiments; phGLuc(1C)-lipid raft Fyn and phGLuc(2C)-TrkB(WT) or phGLuc(2C)-TrkB(Y433F) for the lipid raft localization experiments. Forty-eight hours post transfection, cells were treated (40 min, 37 °C) in phenol red-free Dulbecco’s modified Eagle medium without serum. […] The PCA signal was detected with the substrate for the luciferase, native coelenterazine, which was injected into each well directly in the plate reader at a final concentration of […].

Test [3] deals with T1, TrkB. Kind of test: biochemical. It is filed as binding.
Where [4] appears, read: ext fig 1f, competition curve, n=5.

We go through one molecule from publication PMC10244169, “Psychedelics promote plasticity by directly binding to BDNF receptor TrkB” (Nature Neuroscience, 2023).

The structures appear in SMILES notation.

T1 sequence (Q63604 32-821): as above

Take `O=C(c1ccc(F)cc1)C1CCN(CCn2c(=O)[nH]c3ccccc3c2=O)CC1` [ketanserin, ketanserin (+)-tartrate]: in test [1], the “effect on LSD effects on dendritic arbor complexity” value is “prevent the effects of LSD on dendritic arbor complexity”. For the same molecule, the “displacement of biotinylated R,R-HNK from TrkB” value at TrkB [2] (biotinylated R,R-HNK 10 µM) is given as “not ketanserin, displace R,R-HNK binding to TrkB”. Further, at TrkB [2] (ext fig 1g), the “K (one phase decay, best-fit)” value was 1491612413; the “Plateau (one phase decay, best-fit)” value turned out to be 97.9; the “Span (one phase decay, best-fit)” value is recorded as 2.855; the “Tau (one phase decay, best-fit)” value is 6.70E-10. Also, the “Y0 (one phase decay, best-fit)” value at TrkB [2] (ext fig 1g) was found to be 100.8. Moreover, the “effect of pretreatment on LSD- and BDNF-induced TrkB dimerization” value on TrkB (WT) dimerization is “fails to prevent the effects of LSD and BDNF on TrkB dimerization”. For the same molecule, the “displacement of ^3H-LSD from TrkB” value at TrkB [3] (1 nM to 10 µM of drug) was “fail to displace LSD binding to TrkB”. Also, the “Fit status, specific binding with Hill slope” value at TrkB [3] (ext fig 1f) is “Ambiguous”. Also, at TrkB [3] (setting [4]), the “Bmax (specific binding with Hill slope, best-fit)” value amounted to 96.24 and the “h (Hill slope, best-fit)” value is reported as ~ 0.3927.
